This passage reports Activity, MIC and AC50 results from ChEMBL document CHEMBL1151339, “Antitumor agents from bohemic acid complex, III. The isolation of marcellomycin, musettamycin, rudolphomycin, mimimycin, collinemycin, alcindoromycin, and bohemamine” (J Nat Prod, 1980).

Values after ≈ are worked out from the molar mass of the structure shown.

Data set [1] concerns Mus musculus. The data set can be described thus: Toxicity in BDF1 mouse xenografted with mouse L1210 cells assessed as survival at 12.8 mg/kg, ip after 5 days. Type of data set: organism-based. Details: dose 12.8 mg/kg, route intraperitoneal. Particulars: in vivo, 120 h.
Data set [2] has as its system Escherichia coli. The data set can be described thus: Antibacterial activity against Escherichia coli A15119 by 2-fold tube dilution method. In kind it is functional.
The subject of data set [3] is Candida albicans. The data set can be described thus: Antifungal activity against Candida albicans A15049 by 2-fold tube dilution method. Type of data set: functional.
Data set [4] relates to Staphylococcus. The data set can be described thus: Antibacterial activity against penicillin resistant Staphylococcus A-9606 by 2-fold tube dilution method. Type of data set: functional.
Data set [5] has as its system Proteus mirabilis. The data set can be described thus: Antibacterial activity against Proteus mirabilis A-9900 by 2-fold tube dilution method. Type of data set: functional.
The subject of data set [6] is B16. The data set can be described thus: Antitumor activity against mouse B16 cells xenografted in BDF1 mouse assessed as change in tumor average weight at 1.6 mg/kg. In kind it is functional.
Data set [7] deals with Mus musculus. The data set can be described thus: Toxicity in BDF1 mouse xenografted with mouse B16 cells assessed as survival at 0.2 mg/kg after 5 days. Type of data set: organism-based. Details: dose 0.2 mg/kg.
The subject of data set [8] is L1210. The data set can be described thus: Antitumor activity against mouse L1210 cells xenografted in BDF1 mouse assessed as median survival time at 0.8 mg/kg, ip. Type of data set: functional. Conditions: route intraperitoneal.
Data set [9] concerns Mus musculus. The data set can be described thus: Toxicity in BDF1 mouse xenografted with mouse L1210 cells assessed as survival at 0.8 mg/kg, ip after 5 days. Details: dose 0.8 mg/kg, route intraperitoneal. Conditions: in vivo, 120 h. Type of data set: organism-based.
In data set [10] the test system is Trichophyton mentagrophytes. The data set can be described thus: Antifungal activity against Trichophyton mentagrophytes A-9870 by 2-fold tube dilution method. In kind it is functional.
Data set [11] relates to B16. The data set can be described thus: Antitumor activity against mouse B16 cells xenografted in BDF1 mouse assessed as change in tumor average weight at 0.025 mg/kg. In kind it is functional.
The test system of data set [12] is B16. The data set can be described thus: Antitumor activity against mouse B16 cells xenografted in BDF1 mouse assessed as median survival time at 3.2 mg/kg. In kind it is functional.
For data set [13], the system named is B16. The data set can be described thus: Antitumor activity against mouse B16 cells xenografted in BDF1 mouse assessed as median survival time at 0.8 mg/kg. In kind it is functional.
The subject of data set [14] is B16. The data set can be described thus: Antitumor activity against mouse B16 cells xenografted in BDF1 mouse assessed as change in tumor average weight at 0.05 mg/kg. In kind it is functional.
Data set [15] has as its system B16. The data set can be described thus: Antitumor activity against mouse B16 cells xenografted in BDF1 mouse assessed as change in tumor average weight at 0.1 mg/kg. In kind it is functional.

For the compound `CC[C@@]1(O)C[C@H](O[C@H]2C[C@H](N(C)C)[C@H](O[C@H]3C[C@H](O)[C@H](O[C@@H]4O[C@@H](C)C(=O)C=C4N)[C@@H](C)O3)[C@@H](C)O2)c2c(cc3c(c2O)C(=O)c2c(O)ccc(O)c2C3=O)[C@H]1C(=O)OC` [RUDOLPHOMYCIN], the Activity entry was “Toxic” in data set [1]; -2.5 g in [6]; 9 days in data set [8]; “Non-toxic” in data set [9]; -0.9 g in [11]; 23 days in data set [12]. Further, the Activity in [13] is 29 days; in data set [14], -0.8 g; in data set [15], -0.4 g. Besides, the MIC in data set [2] is more than 125 µg/mL; in data set [3] it was more than 16 µg/mL; in data set [4] it was 32 µg/mL (≈ 38.1 µM); in data set [5], more than 125 µg/mL; in [10] it was more than 16 µg/mL. Also, the AC50 entry in data set [7] is “Non-toxic”.

One may read the MIC as the lowest concentration that inhibits growth of the organism. Read a low MIC as inhibition by little substance.
